# Measured values reported in patent US10017535B2, “Amphiphilic compounds with neuroprotective properties” (USTAV ORGANICKE CHEMIE A BIOCHEMIE AV CR, v.v.i., priority 2014, dated 2018).
# Where two headings read alike, the source gives them in different places.
# Target: T1, NR1-1a/NR2B NMDA receptor (Rattus norvegicus, UniProt P35439+Q00960)
# T1 construct: expressed in transfected cells; host or cells: HEK293 cells (ATCC CRL1573)
# Test: Patch-clamp inhibition of glutamate-evoked currents at recombinant NMDA receptors in transfected HEK293 cells
# Type: cell-based
# Description: Transfected cells were identified by means of fluorescent green protein (GFP) fluorescence. Its genus was transfected together with the both receptor subunit genes.
# Steroid-containing solutions were prepared from fresh solution (20 mmol·l^−1, of steroid dissolved in dimethyl sulfoxide, DMSO), which was added to the extracellular solution containing 1 mmol·l^−1 glutamic acid and 10 μmol·l^−1 of glycine. Identical concentrations of DMSO were added to all other extracellular solutions.
# Current responses produced by extracellular application of glutamic acid solution (1 mmol·l^−1) were measured from the whole cell by patch-clamp technique, which is used for the study of transport of charged particles through model and also natural biological membranes. The currents were measured at membrane potential maintained at −60 mV and +60 mV.
# Same amounts (0.3 μg) of cDNA coding NR1, NR2 and GFP (green fluorescent protein) (pQBI 25, Takara, Japan) were mixed with 0.9 μl of Matra-A Reagent (IBA, Göttingen, Germany) and added to confluent HEK293 cells cultivated in v 24-pit cultivating plate. After trypsination, the cells were re-suspended in Opti-MEM® I containing 1% fetal bovine serum. Subsequently, 20 mmol·l^−1 MgCl2, 1 mmol l^−1 D,L-2-amino-5-phosphonopentanoic acid, 3 mmol·l^−1 kynurenic acid was added to the mixture and cells were inoculated on the polylysine-coated glass plates having 25 mm in diameter. The following genes coding NMDA receptor subunits were used for transfection: NR1-1 a (GenBank accession No. U08261) and NR2B (GenBank accession No. M91562).
# HEK293 Cultured cells were used for electrophysiological investigations with a latency of 16-40 h after transfection. Whole-cell currents were measured by patch-clamp amplifier (Axopatch 1D; Axon Instruments, Inc. Foster City, USA) after capacitance and serial resistance (<10 MΩ) compensation to 80-90%. Agonist-induced responses were filtered to 1 kHz (8-pole Bessel filter; Frequency Devices, Haverhill, USA), digitized with sampling frequency of 5 kHz and analyzed by pClamp version 9 software (Axon Instruments, USA). […] Extracellular solution (ECS) contained 160 mmol·l^−1 sodium chloride, 2.5 mmol·l^−1 potassium chloride, 10 mmol·l^−1 HEPES, 10 mmol·l^−1 glucose, 0.2 mmol·l^−1 EDTA a 0.7 mmol·l^−1 calcium chloride (pH adjusted to 7.3 by sodium hydroxide solution). Glycine was added to both testing and control solution. Moreover, bicuculline (10 μmol·l^−1) and tetrodotoxin (0.5 μmol·l^−1) was added to hippocampal cultures. Steroid-containing solutions were prepared from fresh solution (20 mmol·l^−1) of steroid dissolved in dimethyl sulfoxide (DMSO). Same concentrations of DMSO were used in all extracellular solutions. Control and experimental solutions were applied via microprocessor-controlled perfusion system with approx. rate of solution exchange in areas adjacent to cells reaching ˜10 ms.
# Current responses produced by 100 μmol·l^−1 of NMDA (in the case of hipocampal neurones), or by 1 mmol·l^−1 of glutamate (on recombinant NMDA receptors) were measured at membrane potential maintained at −60 mV. […] Relative effect of steroid-induced inhibition was used for calculating IC50.
# [1] = calculated from relative steroid-induced inhibition, Hill's coefficient 1.2, read-out: IC50
# [2] = steroid concentration 3 μmol·l^−1, 1 mmol·l^−1 glutamate, −60 mV
# [3] = HEK293, read-out: Mean % change ± SD
# [4] = HEK293, steroid concentration 50 μmol·l^−1, 1 mmol·l^−1 glutamate, −60 mV, read-out: Mean % change ± SD
# T1 sequence (Q00960 27-1482, other chains not shown): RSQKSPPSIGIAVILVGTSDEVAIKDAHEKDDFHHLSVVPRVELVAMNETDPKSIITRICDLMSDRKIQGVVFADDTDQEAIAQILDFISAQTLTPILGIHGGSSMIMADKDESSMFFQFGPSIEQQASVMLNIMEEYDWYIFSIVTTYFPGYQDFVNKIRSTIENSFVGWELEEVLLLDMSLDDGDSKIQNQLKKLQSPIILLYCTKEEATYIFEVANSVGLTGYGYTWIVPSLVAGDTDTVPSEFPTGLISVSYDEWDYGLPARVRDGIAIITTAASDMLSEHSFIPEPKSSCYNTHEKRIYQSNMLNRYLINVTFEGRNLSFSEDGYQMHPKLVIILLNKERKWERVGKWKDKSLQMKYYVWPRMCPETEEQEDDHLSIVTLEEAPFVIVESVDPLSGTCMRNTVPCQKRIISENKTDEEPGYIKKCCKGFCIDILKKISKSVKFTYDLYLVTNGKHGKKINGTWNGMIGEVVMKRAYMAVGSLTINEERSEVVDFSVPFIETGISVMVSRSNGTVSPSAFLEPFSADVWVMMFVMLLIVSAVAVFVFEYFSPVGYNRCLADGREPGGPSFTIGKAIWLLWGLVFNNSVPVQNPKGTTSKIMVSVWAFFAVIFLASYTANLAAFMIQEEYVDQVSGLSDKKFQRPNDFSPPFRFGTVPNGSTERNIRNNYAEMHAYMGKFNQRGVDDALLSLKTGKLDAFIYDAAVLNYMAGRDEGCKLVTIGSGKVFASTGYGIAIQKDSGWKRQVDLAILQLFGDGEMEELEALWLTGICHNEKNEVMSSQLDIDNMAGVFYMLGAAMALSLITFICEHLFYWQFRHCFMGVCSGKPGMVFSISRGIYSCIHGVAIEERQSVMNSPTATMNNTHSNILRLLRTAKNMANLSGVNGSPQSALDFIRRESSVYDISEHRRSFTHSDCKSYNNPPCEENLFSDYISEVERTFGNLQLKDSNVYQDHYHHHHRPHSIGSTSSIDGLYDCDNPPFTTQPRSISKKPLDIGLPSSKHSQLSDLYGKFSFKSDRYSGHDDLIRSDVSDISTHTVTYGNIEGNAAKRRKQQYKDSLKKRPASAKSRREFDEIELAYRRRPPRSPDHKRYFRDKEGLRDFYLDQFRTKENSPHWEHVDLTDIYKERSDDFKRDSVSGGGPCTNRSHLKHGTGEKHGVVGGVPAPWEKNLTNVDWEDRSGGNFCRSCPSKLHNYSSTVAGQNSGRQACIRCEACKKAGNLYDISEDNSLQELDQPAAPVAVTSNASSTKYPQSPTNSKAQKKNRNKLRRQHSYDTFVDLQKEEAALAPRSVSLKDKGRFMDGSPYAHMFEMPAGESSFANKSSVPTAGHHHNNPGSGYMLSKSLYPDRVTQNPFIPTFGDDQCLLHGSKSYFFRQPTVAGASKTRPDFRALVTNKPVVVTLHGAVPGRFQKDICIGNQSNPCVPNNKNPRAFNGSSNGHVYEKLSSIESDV
compound,measurement,setting,value
"C[C@]12CC[C@@H](OS(=O)(=O)O)C[C@H]1CC[C@H]1CCCC[C@@H]12.c1ccncc1 [Compound 8, Pyridinium (2R,4aS,4bS,8aR,10aR)-4a-methyltetradecahydrophenanthren-2-yl 2-Sulfate]",IC50,[1],28.3 µM
same,Mean % change ± SD,"steroid concentration 100 μmol·l^−1, 1 mmol·l^−1 glutamate, −60 mV",78.3 ± 5.5%
"CC12CCCCC1C1CCC3CC(OS(=O)(=O)O)CCC3(C)C1CC2 [Compound 101, Pyridinium (2R,4aS,4bS,6aS,10bS,6aS,12aR)-4a,6a-dimethyloctadecahydrochrysen-2-yl 2-sulfate]",inhibition at 5 µM,"HEK293, steroid concentration 5 μmol·l^−1, 1 mmol·l^−1 glutamate, −60 mV, read-out: Mean % change ± SD",69.1 ± 5.9%
same,IC50,[1],2.3 µM
"Pyridinium (3R,5R,8S,9S,10S,13R,14S,17S)-10,13,17-trimethylhexadecahydro-1H-cyclopenta[a]phenanthren-3-yl 3-sulfate [Compound 117]",IC50,[1],1.1 µM
same,Mean % change ± SD,[2],73.1 ± 6.7%
"C[C@]12CC[C@@H](OC(=O)CC(=O)O)C[C@H]1CC[C@@H]1[C@@H]2CC[C@]2(C)C=CC[C@@H]12 [Compound 65, 3-(((3R,5R,8R,9S,10S,13R,14S)-10,13-Dimethyl-2,3,4,5,6,7,8,9,10,11,12,13,14,15-tetradecahydro-1H-cyclopenta[a]phenanthren-3-yl)oxy)-3-oxopropanoic acid]",inhibition at 10 µM,[3],44 ± 11%
same,IC50,[1],13.5 µM
"C[C@@H]1CC[C@H]2[C@@H](CC[C@@H]3C[C@H](OS(=O)(=O)O)CC[C@@]32C)C1 [Compound 35, Pyridinium (2R,4aS,4bS,7R,8aS,10aR)-4a,7-dimethyltetradecahydrophenanthren-2-yl 2-sulfate]",inhibition at 50 µM,[4],85 ± 1.2%
same,IC50,[1],12 µM
"C[C@@]12CCC[C@H]1[C@@H]1CC[C@@H]3C[C@H](OC(=O)C(=O)O)CC[C@]3(C)[C@H]1CC2 [Compound 50, 2-(((3R,5R,8S,9S,10S,13S,14S)-10,13-Dimethylhexadecahydro-1H-cyclopenta[a]phenanthren-3-yl)oxy)-2-oxoethanoic acid]",inhibition at 10 µM,[3],64 ± 7%
same,IC50,[1],6.3 µM
"C[C@@]12CCC[C@H]1[C@@H]1CC[C@@H]3C[C@H](OS(=O)(=O)O)CC[C@]3(C)[C@H]1CC2.c1ccncc1 [Compound 49, Pyridinium (3R,5R,8S,9S,10S,13S,14S)-10,13-dimethylhexadecahydro-1H-cyclopenta[a]phenanthren-3-yl 3-sulfate]",IC50,[1],2.1 µM
same,Mean % change ± SD,"steroid concentration 2 μmol·l^−1, 1 mmol·l^−1 glutamate, −60 mV",49.2 ± 6.6%
"Pyridinium (2S,4aR,4bR,8aS,10aS)-4a-methyltetradecahydrophenanthren-2-yl 2-sulfate [Compound 128]",IC50,[1],36.3 µM
same,Mean % change ± SD,"steroid concentration 50 μmol·l^−1, 1 mmol·l^−1 glutamate, −60 mV",58.0 ± 2.0%
"Pyridinium (3R,5R,8S,9S,10S,13R,14R,17S)-10,17-dimethylhexadecahydro-1H-cyclopenta[a]phenanthren-3-yl 3-sulfate [Compound 119]",IC50,[1],0.7 µM
same,Mean % change ± SD,[2],81.1 ± 2.1%
"C[C@]12CC[C@@H](OS(=O)(=O)O)C[C@H]1CC[C@@H]1[C@@H]2CC[C@@]2(C)[C@H]1CCC2(F)F [Compound 95, Pyridinium (3R,5R,8R,9S,10S,13S,14S)-17,17-difluoro-10,13-dimethylhexadecahydro-1H-cyclopenta[a]phenanthren-3-yl 3-sulfate]",IC50,,7 µM
same,inhibition at 10 µM,[3],61.2 ± 5.1%
"C[C@@]12CCC[C@H]1[C@@H]1CC[C@@H]3C[C@H](OC(=O)CCC[N+](C)(C)C)CC[C@]3(C)[C@H]1CC2 [Compound 62, 4-(((3R,5R,8S,9S,10S,13S,14S)-10,13-Dimethylhexadecahydro-1H-cyclopenta[a]-phenanthren-3-yl)oxy)-N,N,N-trimethyl-4-oxobutan-1-ammonium chloride]",inhibition at 1 µM,[3],34 ± 5%
same,IC50,[1],1.7 µM
"C[C@]12CC[C@@H](OS(=O)(=O)O)C[C@H]1CC[C@@H]1[C@@H]2CC[C@@]2(C)[C@H]1CC[C@@]21CO1 [Compound 97, Pyridinium (3R,5R,8R,9S,10S,13S,14S,17S)-10,13-dimethylhexadecahydrospiro-[cyclopenta[a]phenanthren-17,2′-oxiran]-3-yl 3-sulfate]",inhibition at 100 µM,[3],78 ± 8.9%
same,IC50,[1],45 µM
"C=C1CC[C@H]2[C@@H]3CC[C@@H]4C[C@H](OC(=O)C[N+](C)(C)C)CC[C@]4(C)[C@H]3CC[C@]12C [Compound 76, 2-(((3R,5R,8R,9S,10S,13S,14S)-10,13-Dimethyl-17-methylenehexadecahydro-1H-cyclopenta[a]phenanthren-3-yl)oxy)-N,N,N-trimethyl-2-oxoethan-1-ammonium chloride]",inhibition at 50 µM,[3],50 ± 10%
same,IC50,[1],51.7 µM
"Pyridinium (3R,5R,8S,9S,10S,13S,14R,17R)-10,17-dimethylhexadecahydro-1H-cyclopenta[a]phenanthren-3-yl 3-sulfate [Compound 118]",IC50,[1],1.5 µM
same,Mean % change ± SD,[2],68.0 ± 7.8%
"C[C@@]12CCC[C@H]1[C@@H]1CC[C@@H]3C[C@H](N4CC(C(=O)O)CC4=O)CC[C@]3(C)[C@H]1CC2 (stereo partly drawn) [Compound 131, 1-((3R,5R,8S,9S,10S,13S,14S)-10,13-Dimethylhexadecahydro-1H-cyclopenta[a]phenanthren-3-yl)-5-oxopyrrolidine-3-carboxylic acid]",inhibition at 10 µM,[3],34.7 ± 7.2%
same,IC50,[1],17.7 µM
"C[C@]12CC[C@@H](OC(=O)CCC(=O)O)C[C@H]1CC[C@@H]1[C@@H]2CC[C@]2(C)C=CC[C@@H]12 [Compound 64, 4-(((3R,5R,8R,9S,10S,13R,14S)-10,13-Dimethyl-2,3,4,5,6,7,8,9,10,11,12,13,14,15-tetra-decahydro-1H-cyclopenta[a]phenanthren-3-yl)oxy)-4-oxobutanoic acid]",inhibition at 10 µM,[3],45.9 ± 11.7%
same,IC50,[1],12.9 µM
"C[C@@]12CCC[C@H]1[C@H]1CC[C@H]3C[C@H](OS(=O)(=O)O)CC[C@]3(C)[C@@H]1CC2.c1ccncc1 [Compound 127, Pyridinium (3R,5S,8R,9R,10S,13S,14S)-10,13-dimethylhexadecahydro-1H-cycopenta[a]phenanthren-3-yl 3-sulfate]",IC50,[1],1.7 µM
same,Mean % change ± SD,[2],34.0 ± 5.0%
"Pyridinium (3R,5R,8S,9S,10S,13R,14S,17S)-17-ethyl-10,13-dimethylhexadecahydro-1H-cyclopenta[a]phenanthren-3-yl 3-sulfate [Compound 120]",IC50,[1],0.5 µM
"C[C@]12CC[C@@H](OS(=O)(=O)O)C[C@H]1CC[C@@H]1[C@@H]2CC[C@]2(C)[C@@H](I)CC[C@@H]12 [Compound 93, Pyridinium (3R,5R,8R,9S,10S,13S,14S,17S)-17-iodo-10,13-dimethylhexadecahydro-1H-cyclopenta[a]phenanthren-3-yl 3-sulfate]",inhibition at 5 µM,[3],90.5 ± 2.2%
same,IC50,[1],0.8 µM
"C/C=C1/CC[C@H]2[C@@H]3CC[C@@H]4C[C@H](NC(=O)CC(=O)O)CC[C@]4(C)[C@H]3CC[C@]12C [Compound 155, 3-(((3R,5R,8R,9S,10S,13S,14S,Z)-17-Ethylidene-10,13-dimethylhexadecahydro-1H-cyclopenta[a]phenanthren-3-yl)amino)-3-oxopropanoic acid]",IC50,,8.7 µM
same,inhibition at 10 µM,[3],54.4 ± 5%
"Pyridinium (3R,5R,8R,9S,10S,13S,14S)-10,13-dimethyl-17-methylenehexadecahydro-1H-cyclopenta[a]phenanthren-3-yl 3-sulfate [Compound 116]",IC50,[1],1.4 µM
same,Mean % change ± SD,[2],68.3 ± 4.3%
"COC[C@@]1(C)CC[C@H]2[C@@H](CC[C@@H]3C[C@H](OC(=O)CCC(=O)O)CC[C@@]32C)C1C (stereo partly drawn) [Compound 19, 4-(((2R,4aS,4bS,7S,8aS,10aR)-7-(methoxymethyl)-4a,7,8-trimethyltetradecahydrophenanthren-2-yl)oxy)-4-oxobutanoic acid]",inhibition at 50 µM,[4],47.4 ± 4.3%
same,IC50,[1],55 µM
